Key:
NHE-2 isoform = target: T1, NHE-2 isoform (Homo sapiens, UniProt Q9UBY0); details: cited from earlier work
T1 sequence (Q9UBY0 1-812): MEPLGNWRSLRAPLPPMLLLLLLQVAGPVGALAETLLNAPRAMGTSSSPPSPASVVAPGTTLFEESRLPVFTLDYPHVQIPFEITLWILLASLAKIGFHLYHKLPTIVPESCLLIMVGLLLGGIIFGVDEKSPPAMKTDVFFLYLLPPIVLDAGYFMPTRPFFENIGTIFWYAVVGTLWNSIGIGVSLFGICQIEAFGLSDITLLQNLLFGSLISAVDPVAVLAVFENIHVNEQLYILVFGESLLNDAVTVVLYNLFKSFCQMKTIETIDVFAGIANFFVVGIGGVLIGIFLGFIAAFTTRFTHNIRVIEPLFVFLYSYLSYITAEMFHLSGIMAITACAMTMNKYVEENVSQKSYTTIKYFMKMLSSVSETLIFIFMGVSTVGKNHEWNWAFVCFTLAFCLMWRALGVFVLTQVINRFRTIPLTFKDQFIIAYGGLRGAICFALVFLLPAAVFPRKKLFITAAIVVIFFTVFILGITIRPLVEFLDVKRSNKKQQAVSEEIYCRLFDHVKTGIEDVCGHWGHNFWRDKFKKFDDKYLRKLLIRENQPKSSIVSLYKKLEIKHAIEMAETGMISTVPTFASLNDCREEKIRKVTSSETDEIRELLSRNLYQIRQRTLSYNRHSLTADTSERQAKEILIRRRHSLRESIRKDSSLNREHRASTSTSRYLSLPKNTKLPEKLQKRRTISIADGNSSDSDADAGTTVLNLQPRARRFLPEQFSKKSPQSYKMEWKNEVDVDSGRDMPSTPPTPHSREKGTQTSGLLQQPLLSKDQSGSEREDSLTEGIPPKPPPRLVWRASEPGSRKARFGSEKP

NHE5 = target: T2, NHE5 (Homo sapiens, UniProt Q14940); details: cited from earlier work
T2 sequence (Q14940 1-896): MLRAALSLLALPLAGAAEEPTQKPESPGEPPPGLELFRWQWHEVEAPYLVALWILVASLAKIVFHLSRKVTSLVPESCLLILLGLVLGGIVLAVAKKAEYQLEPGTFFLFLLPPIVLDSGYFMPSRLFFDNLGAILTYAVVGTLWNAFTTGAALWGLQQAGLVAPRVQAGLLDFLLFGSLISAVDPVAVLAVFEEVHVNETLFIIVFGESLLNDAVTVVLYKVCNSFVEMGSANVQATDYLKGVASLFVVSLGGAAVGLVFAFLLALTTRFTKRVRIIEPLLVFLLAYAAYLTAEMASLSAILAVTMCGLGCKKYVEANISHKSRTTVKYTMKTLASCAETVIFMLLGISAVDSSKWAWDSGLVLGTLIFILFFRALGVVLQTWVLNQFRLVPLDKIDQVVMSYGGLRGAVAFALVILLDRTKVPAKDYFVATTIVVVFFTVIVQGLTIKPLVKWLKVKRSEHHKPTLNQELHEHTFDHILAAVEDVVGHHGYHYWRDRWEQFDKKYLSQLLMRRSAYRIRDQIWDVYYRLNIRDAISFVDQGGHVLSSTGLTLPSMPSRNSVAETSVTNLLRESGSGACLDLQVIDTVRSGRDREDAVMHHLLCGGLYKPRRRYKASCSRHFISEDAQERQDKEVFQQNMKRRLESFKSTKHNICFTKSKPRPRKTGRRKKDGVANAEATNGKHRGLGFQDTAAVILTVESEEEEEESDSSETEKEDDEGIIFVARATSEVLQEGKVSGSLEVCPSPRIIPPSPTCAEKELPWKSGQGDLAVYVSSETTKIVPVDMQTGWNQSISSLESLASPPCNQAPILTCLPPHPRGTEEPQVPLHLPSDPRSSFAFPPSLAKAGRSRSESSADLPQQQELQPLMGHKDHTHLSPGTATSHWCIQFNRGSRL

NHE-3 = NHE-3 (Homo sapiens, UniProt P48764); details: cited from earlier work
Sequence of NHE-3 (P48764 26-834, species assumed): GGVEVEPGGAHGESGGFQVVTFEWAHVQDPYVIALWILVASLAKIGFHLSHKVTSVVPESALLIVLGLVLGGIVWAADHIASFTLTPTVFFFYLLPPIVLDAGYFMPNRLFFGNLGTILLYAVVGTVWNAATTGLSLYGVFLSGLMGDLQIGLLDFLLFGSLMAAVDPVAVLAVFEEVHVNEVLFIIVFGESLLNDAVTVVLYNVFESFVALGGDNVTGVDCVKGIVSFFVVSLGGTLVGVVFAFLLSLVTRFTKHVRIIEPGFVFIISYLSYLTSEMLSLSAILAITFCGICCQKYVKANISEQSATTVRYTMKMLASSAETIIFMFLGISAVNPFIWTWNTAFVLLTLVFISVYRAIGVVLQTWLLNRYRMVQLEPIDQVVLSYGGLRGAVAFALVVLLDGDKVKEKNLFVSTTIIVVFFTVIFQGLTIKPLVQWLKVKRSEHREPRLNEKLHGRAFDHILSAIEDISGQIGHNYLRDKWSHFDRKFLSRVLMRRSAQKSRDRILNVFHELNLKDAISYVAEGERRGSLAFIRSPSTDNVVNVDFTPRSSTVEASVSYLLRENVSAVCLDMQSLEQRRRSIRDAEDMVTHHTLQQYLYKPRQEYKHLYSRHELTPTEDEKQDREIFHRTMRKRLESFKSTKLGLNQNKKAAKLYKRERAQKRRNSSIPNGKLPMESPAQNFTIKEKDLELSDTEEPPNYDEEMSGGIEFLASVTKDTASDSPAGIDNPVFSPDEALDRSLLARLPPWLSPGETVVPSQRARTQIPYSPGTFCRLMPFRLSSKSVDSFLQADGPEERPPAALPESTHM

ApoE receptors (Apoer2) = experiment: recycling of ApoE receptors in the presence of ApoE4 / ApoE3; type: cell-based

## CS(=O)(=O)O.CS(=O)(=O)c1cc(C(=O)N=C(N)N)ccc1N1CCCCC1 [HOE 694]
NHE-2 isoform
  NHE-2 isoform selectivity: relatively selective

## CN1Cc2c(Cl)cc(Cl)cc2C(c2ccc(S(=O)(=O)N=C(N)N)cc2)C1 (stereo not shown) [N-diaminomethylene-4-(6,8-dichloro-2-methyl-1,2,3,4-tetrahydroisoquinolin-4-yl)benzenesulfonamide]
NHE5
  NHE5 selectivity: NHE5 selective

## CC(=Cc1cc(C)ccc1C=C(C)C(=O)NC(=N)N)C(=O)N=C(C)C.Cl.Cl [S3226, 3-[2-(3-guanidino-2-methyl-3-oxo-propenyl)-5-methyl-phenyl]-N-isopropylidene-2-methyl-acrylamide dihydro-chloride]
NHE-3
  NHE-3 potency and specificity: relatively potent and specific

## COc1ccc2c3c([nH]c2c1)C(C)=NCC3 [hamaline]
NHE5
  NHE5 selectivity: NHE5 selective

## CC(C)NCC(O)c1ccc(O)c(O)c1 (stereo not shown) [isoproterenol]
ApoE receptors (Apoer2); activation of beta-adrenergic receptors, in the presence or absence of IBMX
  ApoE receptor recycling: restores normal ApoE receptor recycling

## COc1ccc(C2CNC(=O)C2)cc1OC1CCCC1 (stereo not shown) [rolipram]
ApoE receptors (Apoer2); in the presence of ApoE3
  effect on altering the recycling properties of Apoer2: negligible effect
ApoE receptors (Apoer2); in the presence of ApoE4
  recycling deficit induced by ApoE4: completely normalizes

— patent publication US8530516B2, “Promoting cycling of ApoE4 isoform” (Board of Regents, The University of Texas System, priority 2009, dated 2013)
